Assay results from PubChem BioAssay (NCI).
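Five concentrations, 48 hours, 96-well plates. Abbreviation: GI50, concentration required for 50% inhibition of growth. At the TGI there is no net growth.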

Tests used:
Assay in all cases: DTP human tumour cell line panel, 48 h
ACHN renal = tested on: ACHN renal
HOP-62 NSCLC = tested on: HOP-62 NSCLC
IGROV1 ovarian = tested on: IGROV1 ovarian
MALME-3M melanoma = tested on: MALME-3M melanoma
MOLT-4 leukemia = tested on: MOLT-4 leukemia
OVCAR-4 ovarian = tested on: OVCAR-4 ovarian
SF-295 CNS = tested on: SF-295 CNS
SK-OV-3 ovarian = tested on: SK-OV-3 ovarian
SN12C renal = tested on: SN12C renal
UO-31 renal = tested on: UO-31 renal

SMILES | GI50 (ACHN renal) [µM] | TGI (ACHN renal) [µM] | GI50 (HOP-62 NSCLC) [µM] | TGI (HOP-62 NSCLC) [µM] | GI50 (IGROV1 ovarian) [µM] | TGI (IGROV1 ovarian) [µM] | GI50 (MALME-3M melanoma) [µM] | TGI (MALME-3M melanoma) [µM] | GI50 (MOLT-4 leukemia) [µM] | TGI (MOLT-4 leukemia) [µM] | GI50 (OVCAR-4 ovarian) [µM] | TGI (OVCAR-4 ovarian) [µM] | GI50 (SF-295 CNS) [µM] | TGI (SF-295 CNS) [µM] | GI50 (SK-OV-3 ovarian) [µM] | TGI (SK-OV-3 ovarian) [µM] | GI50 (SN12C renal) [µM] | TGI (SN12C renal) [µM] | GI50 (UO-31 renal) [µM] | TGI (UO-31 renal) [µM]
COc1ccc(F)cc1-c1ccnc2[nH]c(C3=CCN(C4CCC(CC(=O)O)CC4)CC3)cc12 (stereo unspecified) | 0.243 | > 100 | 0.362 | > 100 | 0.168 | > 100 | 0.206 | 0.563 | 0.218 | > 100 | 0.282 | 6.44 | 0.286 | 15.4 | 1.2 | > 100 | 0.146 | 35.5 | 0.205 | 0.625
COC(=O)[C@@H](C)C[C@H](Cc1ccccc1)NC(=O)c1csc([C@@H](C[C@H](C(C)C)N(C)C(=O)[C@@H](NC(=O)[C@H]2CCCCN2C)C(C(F)(F)F)C(F)(F)F)OC(C)=O)n1 | 0.111 | > 16.7 | 0.0651 | > 16.7 | 0.0666 | > 16.7 | 0.0437 | > 16.7 | 0.0631 | > 16.7 | 0.309 | > 16.7 | 0.0368 | > 16.7 | 0.07 | > 16.7 | 0.106 | > 16.7 | 0.224 | > 16.7
Nc1ccn(C2CC3OCC3O2)c(=O)n1 (stereo unspecified) | – | > 100 | – | > 100 | – | > 100 | – | – | – | > 100 | – | > 100 | – | > 100 | – | > 100 | – | > 100 | – | > 100
CC(CC(=O)Nc1ccc(NC(=O)CC(C)N=NC(N)=O)cc1)N=NC(N)=O (stereo unspecified) | – | > 100 | – | > 100 | – | > 100 | – | > 100 | – | > 100 | – | > 100 | – | > 100 | – | > 100 | – | > 100 | – | > 100
CCCCCC/C(CC(=O)CCC(=O)NCCc1ccccc1)=N\Nc1ccc([N+](=O)[O-])cc1[N+](=O)[O-] | – | > 100 | – | > 100 | – | > 100 | – | > 100 | – | 60.3 | – | – | – | > 100 | – | > 100 | – | > 100 | – | > 100
O=C(CCc1cc(-c2ccc(F)cc2)n[nH]1)N(Cc1ccccc1)Cc1ccccc1 | – | > 100 | – | > 100 | – | > 100 | – | > 100 | – | > 100 | – | – | – | > 100 | – | > 100 | – | > 100 | – | > 100
COc1ccc(/C=C2/CSC/C(=C/c3ccc(OC)c(OC)c3)C2=O)cc1OC | – | 5.58 | – | 8.72 | – | 5.99 | – | 12.2 | – | > 20.9 | – | 5.49 | – | 16.3 | – | 42.6 | – | 4.13 | – | 10.6
COc1cc2c(=O)n(CC3CCCCC3)c3c4cc[nH]c4ncc3c2cc1OC | 2.16 | 10.4 | 2.54 | 11.2 | 0.891 | 13.8 | 6.33 | 26.3 | 5.64 | > 50 | 1.1 | 10.3 | 2.18 | 10.7 | 4.36 | 24.2 | 1.46 | 11.6 | 0.848 | 9.56
COC1CC(n2cc(F)c(N)nc2=O)OC1CO (stereo unspecified) | – | > 100 | – | > 100 | – | – | – | > 100 | – | > 100 | – | > 100 | – | > 100 | – | > 100 | – | > 100 | – | > 100
CN(C)CCOc1ccc2c(c1)C(=O)/C(=C\c1ncc([N+](=O)[O-])n1C)C2 | 0.298 | 2.37 | 1.59 | 4.34 | 0.147 | 0.378 | 0.371 | 1.69 | 0.358 | 1.65 | 0.529 | 3.53 | 0.46 | 1.47 | 0.923 | 3.21 | 1.12 | 5.21 | 0.9 | 3.68
CCCCCCCCc1cc(O)ccc1O | 20.4 | 50.9 | 25.5 | 60.6 | 17.7 | 43.8 | 16.6 | 34.4 | 17.3 | 72.8 | 14.8 | 39.2 | 20.7 | 49 | 34.8 | > 100 | 14.3 | 27.4 | 15 | 28.3
NC(=O)c1nc(-c2ccc(Cl)c(Cl)c2)nc2ccccc12 | – | > 100 | – | > 100 | – | > 100 | – | 30 | – | > 100 | – | > 100 | – | > 100 | – | > 27.3 | – | > 100 | – | > 100
CCCCOP1(=O)CC(C)=C(Cl)C(C)(OC)C1 (stereo unspecified) | – | > 100 | – | > 100 | – | > 100 | – | > 100 | – | > 100 | – | > 100 | – | > 100 | – | > 100 | – | > 100 | – | > 100
O/N=C1\C(=C\c2ccc3c(c2)OCCO3)CCCC1C(NO)c1ccc2c(c1)OCCO2 (stereo unspecified) | – | > 100 | – | 52.3 | – | > 100 | – | 63.7 | – | 32.4 | – | > 100 | – | > 100 | – | > 100 | – | 29.8 | – | 68.7
N#C/C(=C1\OC(N)=C(c2ccc(Cl)cc2)C1=O)c1ccc(Cl)cc1 | – | 33.1 | – | 33.4 | – | 38.3 | – | 34.3 | – | 50.9 | – | 32 | – | 29.2 | – | 89.1 | – | 23 | – | 29.8
Oc1ccc(O)c(-n2cccn2)c1-n1cccn1 | – | > 100 | – | > 100 | – | > 100 | – | > 100 | – | > 10 | – | > 100 | – | > 100 | – | > 100 | – | > 100 | – | > 100
Cc1cc2nc(-c3ccc(O)c(O)c3)n(Cc3ccc(O)c(O)c3)c2cc1C | 15.3 | 59.6 | 45.6 | > 100 | 18.1 | > 100 | 27.2 | > 100 | 4.4 | 28.6 | 54.9 | > 100 | 20.2 | 66.3 | > 100 | > 100 | 18.5 | 44.8 | 64.3 | > 100
